Results taken from paper PMC4521981 (Nature methods, 2015).

Assays:
[1] = system: MBP-SCRIB-4/4 PDZ construct; experiment: Automated holdup assay, benchmark set; assay type: binding, human; settings: overlaid electropherograms of peptide and biotin flowthroughs
[2] = system: MBP-SCRIB-34/4 PDZ tandem construct; experiment: Automated holdup assay, benchmark set; assay type: binding, human; settings: overlaid electropherograms of peptide and biotin flowthroughs

binding strength in holdup [1] | binding strength in holdup [2] | Sequence
no binding | – | GSGAGHETIV [TMFLJ_05]
– | moderate binding | GSGAGKETLV [NET1_05]
